{"source": "patent US9566290B2", "about": "“Boron-containing small molecules” (Anacor Pharmaceuticals, Inc., priority 2005, dated 2017)", "key": {"[1]": {"test": "Water solubility (table of physicochemical properties)"}, "[2]": {"tested_on": "Saccharomyces cerevisiae strain ATCC 201388", "test": "MIC (NCCLS M27, YPD or synthetic defined media), haploid parental strain", "assay_type": "cell-based", "conditions": "Saccharomyces cerevisiae, ATCC201388, Table 2; ATCC201388; read-out: MIC", "description": "(§1) The haploid Saccharomyces cerevisiae strain ATCC 201388 was used in the selection of C10 resistant mutants. Spontaneous and EMS-induced resistant mutants were isolated from YPD agar plates containing 4×, 8×, 16×MIC of C10. All minimal inhibitory concentrations (MIC) were determined using NCCLS protocol M27 with the exception of using YPD or synthetic defined media. All yeast and molecular genetic manipulations were essentially performed as described by Guthrie C., et al., Methods in Enzymology, 350: Part B, (2002).\n(§2) The minimal inhibitory concentration (MIC) was essentially performed following the NCCLS guidelines outlined in the M27 protocol with the exception of using YPD or synthetic defined media (SDM)."}, "[3]": {"tested_on": "S. cerevisiae C10 resistant mutants (CDC60 editing domain mutations)", "test": "MIC (NCCLS M27), spontaneous and EMS induced C10 resistant mutants", "assay_type": "cell-based, Saccharomyces cerevisiae", "conditions": "for MIC: Saccharomyces cerevisiae, Table 2", "description": "as §1\nResistant mutants appeared after 2 d incubation at 30° C. Frequency of resistance was determined by dividing the number of resistant mutants by the total number of cells plated as determined by plating dilutions of the overnight culture on YPD plates.\nA 2.5 mL of the overnight culture, which was grown in YPD media, was centrifuged at 700×g for 5 minutes. The cell pellet was resuspended in 10 mL 50 mM potassium phosphate buffer, pH 7.0. The cell suspension was centrifuged again and the cell pellet was resuspended in phosphate buffer to obtain a cell density of 5×10^7 cells/mL as determined by counting the cells using a Petroff Hausser Counting Chamber (Horsham, Pa. USA). The cell suspension was shaken with 300 μL of EMS (Alfa Aesar, Ward Hill, Mass., USA) for 30 min. at 30° C. The mutagenesis was stopped by adding 10% (w/v) sodium thiosulfate (Sigma-Aldrich, St. Louis, Mo., USA), and the cells were pelleted by centrifugation at 700×g for 5 min. and resuspended in 1 mL sterile H2O. This was repeated once more before the cells were plated on YPD agar plates containing 1.6 μg/mL of C10.\nas §2"}, "[4]": {"test": "Nail penetration, 14-day dosing of radiolabeled compound (Hui protocol)", "assay_type": "in vitro ADME", "conditions": "washing, nail samples and supporting bed cotton ball samples; 14-day treatment", "description": "Two nail penetration studies were performed based on the protocol in Hui et al., Journal of Pharmaceutical Sciences, 91(1): 189-195 (2002) (“Hui protocol”). The purpose of this study was to determine and compare the penetration and distribution of C10 in vehicle into the human nail plate in vitro relative to 8% ciclopirox w/w in commercial lacquer (Penlac®).\nThe study was composed of two groups. The compositions (weight %) of the dosage formulations are as follows: […]\nHealthy human finger nail plates were collected from adult human cadavers and stored in a closed container at 0-4° C. Before the experiment, the nail plates were gently washed with normal saline to remove any contamination, then re-hydrated by placing them for three hours on a cloth wetted with normal saline. The nail samples were randomly selected into four groups.\nRadioactivity of each group is approximately 0.19±0.01 and 0.22±0.03 μCi/10 μL solutions respectively, for ^14C—C10 (group A), and ^14C-ciclopirox (group C).\nSurface washing was started in morning 10 min prior to next dosing, the surface of the nail was washed with cotton tips in a cycle, as follows:\nA Teflon one-chamber diffusion cell (PermeGear, Inc., Hellertown, Pa.) was used to hold each nail. To approximate physiological conditions, a small cotton ball wetted with 0.1 mL normal saline was placed in the chamber to serve as a nail bed and provide moisture for the nail plate. Every 3 days, 0.1 mL normal saline was injected through the inlet into the chamber to keep the cotton ball wet. The nail plate was placed on a ledge inside the receptor (1.0 cm in diameter and 0.5 cm high). The ventral (inner) surface of the nail was placed face down and rested on the wet cotton ball. The cells were placed on a platform in a large glass holding tank filled with saturated sodium phosphate solution to keep the cells at a constant humidity of 40%.\nAfter completion of the incubation phase, the nail plate was transferred from the diffusion cell to a clean copper nail holder for sampling process. The nail plate was inverted so that the ventral (nail bed) surface now faced up and the dorsal (outer) dosed surfaced faced down. The copper nail holder has an opening as it sits on top of the stage. When the sampling process initiated, the coarse adjustment was adjusted to move the position of the stage until the nail plate was just touching the tip of the cutter. Then the drill was turned on and the fine adjustment was turned to push the stage closer to the drill, removing a nail core sample. After the above process, approximate 0.40-0.50 mm in depth and 7.9 mm in diameter nail pulverized samples were harvested from the center of the ventral (nail bed) surface of the nail.\nThe powdered nail samples were collected into a glass scintillation vial and weighted. Aliquots of 5.0 mL Packard soluene-350 (Packard Instrument Company, Meriden, Conn.) was added to the scintillation vial to dissolve the powder. The upper part, the intermediate and dorsal layers of the center of the nail, including the area of application of the dose was cut in the same diameter as the sampled area and was then placed into a glass scintillation vial with 5.0 mL packard soluene-350. The rest of the nail was also placed in a glass scintillation vial with 5.0 mL packard soluene-350.\nAll radioactivity measurements were conducted with a Model 1500 Liquid Scintillation Counter (Packard Instrument Company, Downer Grove, Ill.). The counter was audited for accuracy using sealed samples of quenched and unquenched standards as detailed by the instrument manual. The ^14C counting efficiency is equal to or greater than 95%. All nail samples pre-treated with packard soluene-350 were incubated at 40° C. for 48 hours followed by the addition of 10 mL scintillation cocktail (HIONIC-FLUOR, Packard Instrument Company, Meriden, Conn.). […]"}, "[5]": {"assay_type": "in vitro ADME, human", "description": "C10, 5-fluoro-1,3-dihydro-1-phenyl-2,1-benzoxaborole, C1, and 5-fluoro-1,3-dihydro-1-(3-hydroxymethylphenyl)-2,1-benzoxaborole, formulated at 10% w/v in ethanol, were tested. A single aliquot (10 μl) of each formulation was dosed to the top of human nail plates using the nail penetration procedure described below, and allowed to stand for 3-days. The dosed area was washed, and then the cotton ball bed supporting the nail and the nail samples were collected at the end of the incubation period, stored at 4° C. and analyzed for drug using LC/MS/MS.\nDetails of the nail incubation have been previously described^9, 10. […] The supporting cotton ball under the nail was wetted by normal saline providing moisture for the nail plate, and the degree of hydration was monitored and controlled during the experiment. […]\nLC/MS/MS (API3000, Applied Biosystems, Foster City, Calif.) was used to quantitate the amounts of non-radiolabeled oxaboroles, C10, 5-fluoro-1,3-dihydro-1-phenyl-2,1-benzoxaborole, C1, and 5-fluoro-1,3-dihydro-1-(3-hydroxymethylphenyl)-2,1-benzoxaborole in samples from the nail penetration studies. […] After centrifugation, the filtrate from the cotton ball samples was transferred to autosampler vials and analyzed by LC/MS/MS. […]"}, "[6]": {"tested_on": "bacterial isoleucyl-tRNA synthetases", "conditions": "cited from earlier work"}}}
{"smiles": "OB1OCc2cc(Cl)ccc21", "note": "[C1, 5-chlorobenzo[c][1,2]oxaborol-1(3H)-ol]", "values": [{"measurement": "solubility", "setting": "[1]", "value": "> 100", "unit": "µg/mL"}]}
{"smiles": "Cc1cc(C2CCCCC2)n(O)c(=O)c1", "note": "[ciclopirox]", "values": [{"measurement": "MIC", "setting": "[2]", "value": 0.5, "unit": "µg/mL"}, {"measurement": "resistance of C10 resistant mutants to other antifungals, in words", "setting": "[3]", "value": "not resistant"}, {"measurement": "MIC", "setting": "[3]; C10 resistant mutant (C)", "value": 0.5, "unit": "µg/mL"}, {"measurement": "MIC", "setting": "[3]; C10 resistant mutant (G)", "value": 0.5, "unit": "µg/mL"}, {"measurement": "MIC", "setting": "[3]; C10 resistant mutant (H)", "value": 0.5, "unit": "µg/mL"}, {"measurement": "Cumulative radioactivity recoveries of carbon-14", "setting": "[4]", "value": "89±1.56% of applied dose"}, {"measurement": "penetration of the nail plate, in words", "setting": "[5]", "value": "penetrates the nail plate poorly"}]}
{"smiles": "C/C(=C\\C(=O)OCCCCCCCCC(=O)O)C[C@@H]1OC[C@H](C[C@@H]2O[C@H]2[C@@H](C)[C@H](C)O)[C@@H](O)[C@H]1O", "note": "[Mupirocin, mupirocin]", "values": [{"measurement": "activity against the human homolog versus bacterial isoleucyl-tRNA synthetases (times less active)", "setting": "[6]", "value": "more than 1,000 times"}]}
